Converted amounts (≈) assume the structure as drawn. Read-outs that look alike come from different tables or passages of the source.
How the values were obtained:
[1] = target: T1, full-length beta-Catenin (Uniprot ID P35222) (Homo sapiens, UniProt P35222); assay: Fluorescence polarization IC50 (beta-catenin / 5FAM-TCF4 10-53 competition); assay type: binding
T1 construct: 10 nM full-length beta-Catenin (Uniprot ID P35222)
T1 sequence (P35222 1-781): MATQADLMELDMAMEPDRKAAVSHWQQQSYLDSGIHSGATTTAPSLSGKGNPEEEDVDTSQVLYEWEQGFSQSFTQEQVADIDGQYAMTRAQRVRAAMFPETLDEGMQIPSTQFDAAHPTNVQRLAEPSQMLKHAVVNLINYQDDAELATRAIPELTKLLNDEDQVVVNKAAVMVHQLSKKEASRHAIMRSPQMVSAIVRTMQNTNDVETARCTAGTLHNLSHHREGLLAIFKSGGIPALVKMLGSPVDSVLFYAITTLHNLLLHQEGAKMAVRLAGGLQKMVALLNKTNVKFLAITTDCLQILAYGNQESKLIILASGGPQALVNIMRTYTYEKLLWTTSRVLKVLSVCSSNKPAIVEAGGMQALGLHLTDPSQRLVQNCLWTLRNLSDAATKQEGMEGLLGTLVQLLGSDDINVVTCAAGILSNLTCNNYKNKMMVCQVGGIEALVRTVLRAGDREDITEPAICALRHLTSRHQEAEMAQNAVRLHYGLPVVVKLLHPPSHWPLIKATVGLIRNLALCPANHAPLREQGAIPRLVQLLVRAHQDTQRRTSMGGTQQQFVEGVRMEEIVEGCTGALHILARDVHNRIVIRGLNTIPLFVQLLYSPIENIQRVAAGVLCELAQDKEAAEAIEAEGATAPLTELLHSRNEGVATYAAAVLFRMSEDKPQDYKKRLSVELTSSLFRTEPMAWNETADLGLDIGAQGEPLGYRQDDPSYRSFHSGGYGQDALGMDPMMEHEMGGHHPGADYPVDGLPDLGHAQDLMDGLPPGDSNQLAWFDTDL

Solubility in PBS = assay type: physicochemical
Procedure, shortened: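 Solubility is derived from HPLC peak areas: the ratio of the PBS supernatant peak to a 50 μM DMSO peptide peak, times 50 uM.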

CHI Log D procedure = assay type: physicochemical; details: for CHI Log D: pH 7.4
[2] = target: T2, full-length B-Catenin (Uniprot ID P35222) (Homo sapiens, UniProt P35222); assay: Alphascreen binding assay (beta-catenin / biotin-TCF4 10-53)
T2 construct: 65 nM full-length B-Catenin (Uniprot ID P35222)
T2 sequence (P35222 1-781): T1 sequence (P35222 1-781)
Procedure, shortened: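 Final concentrations: 65 nM full-length human β-catenin plus 10 nM biotin-TCF4(10-53) peptide, test peptide 3-fold from 10 uM to 5 nM, preincubated 15 min at 20 °C in Tris pH 8.0/250 mM NaCl buffer. Nickel-chelate AlphaScreen donor/acceptor beads then added for 60 min in the dark; duplicate reads fitted to 1:1 binding model with Hill slope.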

[3] = target: T3, beta-catenin/TCF4 engagement (Homo sapiens, UniProt P35222); assay: Nano-BRET target engagement assay (B-cat-Halo & TCF4-Luc in HEK293 cells); assay type: cell-based; details: read-out: NanoBRET Abs IC50
T3 construct: expressed in transfected cells; host or cells: HEK293
T3 sequence (P35222 1-781): T1 sequence (P35222 1-781)

COLO320DM cells = assay type: cell-based; details: COLO320DM cells; read-out: COLO320DM Proliferation Abs IC50
Description: COLO320DM proliferation assay IC50: In some embodiments, inhibition of cell proliferation by provided technologies were assessed using cell lines related to or from certain conditions, disorders or diseases. In some embodiments, cell proliferation was assessed in COLO320DM cells. In some embodiments, assessment was performed using the following procedure: On Day 1, cultured COLO320DM cells in a T75 flask were trypsinized in 3 mL of 0.25% trypsin/EDTA for 5 min and quenched with 10 mL RPMI-1640+4% HI FBS assay media. The cells were spun down at 1200 rpm for 5 min, the cell pellet collected and re-suspended at 5000 cells/mL in assay media. Using a Combi liquid handler, cells were dispensed (50 uL, 250 cells/well) into three 384 well plates. Plates were incubated at 37° C., […]. On day 2, compounds were added. A liquid handling system was used to prepare the compound dilution and dispense compound into assay plates. The compounds were serially diluted 1/2 in 90% DMSO to create a 7 point dose curve. From compound plate, 100 nL of compound were dispensed directly into wells of the assay plates to create a dose curve starting at 20 uM and ending at 313 nM. Assay plates were incubated at 37° C., […]. On day 6, assay plates were removed from the incubator and allowed to sit at room temperature for 30 min. Using a liquid handler, 20 uL of CellTiter Glo reagent was added to each well. The assay plates were shaken for 2 min and allowed to sit on the bench for 10-15 minutes. The assay plates were read using the CellTiter Glo protocol on a GloMax microplate reader, and the data analyzed using GraphPad Prism.

[4] = Table E2-1, read-out: beta-Catenin FP IC50
[5] = fluorescence polarization, beta-catenin, read-out: FP EC50
[6] = fluorescence polarization, read-out: beta-Catenin FP IC50

SMILES	IC50 [1, 4] [µM]	Solubility (Solubility in PBS) [µM]	chromatographic logD (CHI Log D procedure; pH 7.4, CHI Log D)	EC50 [2] [µM]	IC50 [1, 5] [µM]	CHI Log D (CHI Log D procedure)	IC50 [3] [µM]	IC50 [1, 6] [µM]	IC50 (COLO320DM cells) [µM]
CC(=O)N1CCC[C@]12CC=CCCCC1(CCCC=CCCCCCC[C@@](C)(C(=O)N[C@@H](Cc3ccccc3)C(=O)N[C@@H](Cc3c[nH]c4ccccc34)C(=O)N[C@@H](CCC(N)=O)C(N)=O)NC(=O)[C@H](C(C)C)NC(=O)[C@H](C)NC(=O)[C@H](C)NC(=O)[C@H](C)NC(=O)[C@H](CC(=O)O)NC(=O)[C@H](CC(=O)O)NC1=O)NC(=O)[C@H](C)NC(=O)[C@H](CC(=O)O)NC2=O (stereo partly drawn) [I-353, Ac-PL3-Asp-Ala-B5-Asp-Asp-Ala-Ala-Ala-Val-S8-Phe-Trp-Gln-NH2]		45 (≈ 76.7 µg/mL)		9.29		1.916			
CC(=O)N1CCC[C@]12CC=CCCCC1(CCCC=CCCCCCC[C@@](C)(C(=O)N[C@@H](Cc3ccccc3)C(=O)N[C@@H](Cc3c[nH]c4ccccc34)C(=O)N[C@@H](CCC(N)=O)C(N)=O)NC(=O)[C@H](C(C)C)NC(=O)[C@H](C)NC(=O)[C@H](C)NC(=O)[C@H](C)NC(=O)[C@H](CC(=O)O)NC(=O)[C@H](CC(=O)O)NC1=O)NC(=O)[C@H](C)NC(=O)[C@H](CC(=O)O)NC2=O (stereo partly drawn) [I-354, Ac-PL3-Asp-Ala-B5-Asp-Asp-Ala-Ala-Ala-Val-S8-Phe-Trp-Gln-NH2]		50 (≈ 85.2 µg/mL)		2.13		1.947			
CC(=O)N1CCC[C@]12CC=CCCCC1(CCCC=CCCCOC(=O)N3CC[C@@](C(=O)N[C@@H](Cc4ccccc4Cl)C(=O)N[C@@H](Cc4csc5ccccc45)C(=O)N[C@@H](CC(N)=O)C(N)=O)(C3)NC(=O)[C@H](CC(C)C)NC(=O)[C@H](Cc3ccccc3)NC(=O)[C@H](C)NC(=O)[C@H](C)NC(=O)[C@H](Cc3cccc(C(=O)O)c3)NC(=O)[C@H](CC(=O)O)NC1=O)NC(=O)[C@H](CC(C)(C)C)NC(=O)[C@H](CC(=O)O)NC2=O (stereo partly drawn) [I-1904, Ac-PL3-Asp-Npg-B5-Asp-3COOHF-Ala-Ala-Phe-Leu-PyrS2-2C1F-BztA-Asn-NH2]							4.2	0.015	> 20
CC(=O)N1CCC[C@]12CC=CCCCC1(CCCC=CCCCOC(=O)N3CC[C@@](C(=O)N[C@@H](Cc4ccccc4Cl)C(=O)N[C@@H](Cc4csc5ccccc45)C(=O)N[C@@H](CC(N)=O)C(=O)N[C@@H](C)C(=O)N[C@@H](C)C(=O)N[C@@H](C)C(N)=O)(C3)NC(=O)[C@H](CC(C)C)NC(=O)[C@H](Cc3ccccc3)NC(=O)[C@H](C)NC(=O)[C@H](C)NC(=O)[C@H](Cc3cccc(C(=O)O)c3)NC(=O)[C@H](CC(=O)O)NC1=O)NC(=O)[C@H](CC(C)(C)C)NC(=O)[C@H](CC(=O)O)NC2=O (stereo partly drawn) [I-2040, Ac-PL3-Asp-Npg-B5-Asp-3COOHF-Ala-Ala-Phe-Leu-PyrS2-2C1F-BztA-Asn-Ala-Ala-Ala-NH2]							2.8	0.024	> 20
CC(=O)N1CCC[C@]12CC=CCCCC1(CCCC=CCCCOC(=O)N3CC[C@@](C(=O)N[C@@H](Cc4ccsc4)C(=O)N[C@@H](Cc4csc5ccccc45)C(=O)N[C@@H](CC(N)=O)C(N)=O)(C3)NC(=O)[C@H](Cc3ccccc3)NC(=O)[C@H](Cc3ccccc3)NC(=O)[C@H](C)NC(=O)[C@H](C)NC(=O)[C@H](Cc3cccc(C(=O)O)c3)NC(=O)[C@H](CC(=O)O)NC1=O)NC(=O)[C@H](CC(C)(C)C)NC(=O)[C@H](CC(=O)O)NC2=O (stereo partly drawn) [I-2044, Ac-PL3-Asp-Npg-B5-Asp-3COOHF-Ala-Ala-Phe-Phe-PyrS2-3Thi-BztA-Asn-NH2]							2.6	0.009	> 20

The remaining compounds from weak to strong by EC50 [2], led by results:

IC50 [1, 4] [µM]	Solubility (Solubility in PBS) [µM]	chromatographic logD (CHI Log D procedure; pH 7.4, CHI Log D)	EC50 [2] [µM]	IC50 [1, 5] [µM]	CHI Log D (CHI Log D procedure)	SMILES	IC50 [3] [µM]	IC50 [1, 6] [µM]	IC50 (COLO320DM cells) [µM]
	50 (≈ 85.2 µg/mL)		8.2		1.619	CC(=O)N1CCC[C@]12CC=CCCCC1(CCCC=CCCCCCC[C@@](C)(C(=O)N[C@@H](C)C(=O)N[C@@H](Cc3c[nH]c4ccccc34)C(=O)N[C@@H](CCC(N)=O)C(N)=O)NC(=O)[C@H](C(C)C)NC(=O)[C@H](Cc3ccccc3)NC(=O)[C@H](C)NC(=O)[C@H](C)NC(=O)[C@H](CC(=O)O)NC(=O)[C@H](CC(=O)O)NC1=O)NC(=O)[C@H](C)NC(=O)[C@H](CC(=O)O)NC2=O (stereo partly drawn) [I-356, Ac-PL3-Asp-Ala-B5-Asp-Asp-Ala-Ala-Phe-Val-S8-Ala-Trp-Gln-NH2]			
3.2	50 (≈ 89.1 µg/mL)	1.93	0.158			CC(=O)N1CCC[C@]12CC=CCCCC1(CCCC=CCCCCCC[C@@](C)(C(=O)N[C@@H](Cc3ccccc3)C(=O)N[C@@H](Cc3c[nH]c4ccccc34)C(=O)N[C@@H](CCC(N)=O)C(N)=O)NC(=O)[C@H](C(C)C)NC(=O)[C@H](Cc3ccccc3)NC(=O)[C@H](C)NC(=O)[C@H](C)NC(=O)[C@H](CC(=O)O)NC(=O)[C@H](CC(=O)O)NC1=O)NC(=O)[C@H](C)NC(=O)[C@H](CC(=O)O)NC2=O (stereo partly drawn) [I-52, Ac-PL3-Asp-Ala-B5-Asp-Asp-Ala-Ala-Phe-Val-S8-Phe-Trp-Gln-NH2]			
1.23	50 (≈ 92.1 µg/mL)		0.154	1.23	1.24	CC[C@H](C)[C@H](NC(=O)[C@H](CC(=O)O)NC(=O)[C@H](C)NC(C)=O)C(=O)N[C@]1(C)CCN(C)C(=O)OCC=CCCCCC[C@@](C)(C(=O)N[C@@H](Cc2ccccc2)C(=O)N[C@@H](Cc2c[nH]c3ccccc23)C(=O)N[C@@H](Cc2c[nH]cn2)C(N)=O)NC(=O)[C@H](CCC(N)=O)NC(=O)[C@H](Cc2ccccc2)NC(=O)[C@H](C)NC(=O)[C@H](C)NC(=O)[C@H](CCC(=O)O)NC(=O)[C@H](CC(=O)O)NC1=O [I-67, Ac-Ala-Asp-Ile-RdN-Asp-Glu-Ala-Ala-Phe-Gln-S7-Phe-Trp-His-NH2]			
3.12	26 (≈ 47.8 µg/mL)		0.105	3.12	3.076	CCN(CC(=O)O)C[C@@H]1NC(=O)[C@H](CC(=O)O)NC(=O)C2(CCCC=CCCCCCC[C@@](C)(C(=O)N[C@@H](Cc3ccccc3)C(=O)N[C@@H](Cc3c[nH]c4ccccc34)C(=O)N[C@@H](CCC(N)=O)C(N)=O)NC(=O)[C@H](C(C)C)NC(=O)[C@H](Cc3ccccc3)NC(=O)[C@H](C)NC(=O)[C@H](C)NC1=O)CCCC=CC[C@]1(CCCN1C(C)=O)C(=O)N[C@@H](CC(=O)O)C(=O)N[C@@H](C)C(=O)N2 (stereo partly drawn) [I-173, Ac-PL3-Asp-Ala-B5-Asp-EtGA-Ala-Ala-Phe-Val-S8-Phe-Trp-Gln-NH2]			
1.31	32 (≈ 56.1 µg/mL)		0.074	1.31	1.926	CC(=O)N1CCC[C@]12CC=CCCCC1(CCCC=CCCCCCC[C@@](C)(C(=O)N[C@@H](Cc3ccccc3)C(=O)N[C@@H](Cc3c[nH]c4ccccc34)C(=O)N[C@@H](CCC(N)=O)C(N)=O)NC(=O)[C@H](C)NC(=O)[C@H](Cc3ccccc3)NC(=O)[C@H](C)NC(=O)[C@H](C)NC(=O)[C@H](CC(=O)O)NC(=O)[C@H](CC(=O)O)NC1=O)NC(=O)[C@H](C)NC(=O)[C@H](CC(=O)O)NC2=O (stereo partly drawn) [I-288, Ac-PL3-Asp-Ala-B5-Asp-Asp-Ala-Ala-Phe-Ala-S8-Phe-Trp-Gln-NH2]			

Source: patent publication US20240116985A1, “STAPLED PEPTIDES AND METHODS THEREOF” (priority 2020, published 2024)
